System: protein tyrosine kinase (PTK)
Test: PTK activity assay with mouse brain tissue extract (ELISA, OD 492 nm)
Format: biochemical
Settings: at 400 μM
Description: Tyrosine kinase buffer: 10 mL 1M HEPES (pH 7.5), 0.4 mL 5% BSA/PBS, 0.2 mL 0.1M Na3VO4, and 1 mL 5M NaCl were added to 88.4 mL double distilled water (DDW) (HEPES: Amresco; Na3VO4: Sigma).
Extraction of tissue extract PTK: mouse brain tissue was quickly removed and weighed, followed by addition of five-fold volumes of pre-cooled homogenization buffer for homogenization. After centrifugation at 4° C., 1,000 g for 10 min, nuclei and cell debris were removed. The supernatant S1 was collected and centrifuged at 4° C., 10,000 g for 20 min, and then the supernatant S2 was collected. The precipitate P2, which represents the crude membrane protein fraction, was retained. S2 included cytoplasmic protein, and was used for testing protein tyrosine kinase (PTK) activity. In the detection of the membrane protein fraction, two-fold volumes of lysis buffer was added to P2, and the resultant was placed on ice for 10 min and centrifuged at 4° C., 10,000 g for 10 min. The supernatant S3, which represents the crude membrane protein including soluble membrane protein, was collected for testing PTK activity. Protein content in cytoplasm or membrane protein was detected by using BCA protein concentration kit (purchased from Beyotime Institute of Biotechnology). The tissue extract was stored at −70° C.
Coating of 96-well plate: PTK substrate was dissolved and added in an amount of 100 μl to each well. The plate was covered with its lid, and incubated at 4° C. overnight (10-12 hours). Then it was washed with 200 μl elution buffer once, and dried at 37° C. for 2 h. After that, it was washed with 10 mM PBS once, dried at room temperature, and then stored at 4° C. for further use.
Groups: blank control: 80 μl 1× tyrosine kinase buffer containing ATP+20 μl 1× tyrosine kinase buffer; negative control: 80 μl 1× tyrosine kinase buffer containing ATP+10 μl 1× tyrosine kinase buffer+7 μl tissue extract+3 μl 1× tyrosine kinase buffer; positive control: 80 μl 1× tyrosine kinase buffer containing ATP+10 μl Gefitinib+7 μl tissue extract+3 μl 1× tyrosine kinase buffer (first, the positive drug was allowed to interact with the tyrosine kinase tissue extract at room temperature for 10 min, and meanwhile the tissue extract for the negative control group was also placed at room temperature for 10 min, and then 80 μl 1× tyrosine kinase buffer containing ATP was added to respective groups); vehicle control: 80 μl 1× tyrosine kinase buffer containing ATP+10 μl DMSO+7 μl tissue extract+3 μl 1× tyrosine kinase buffer; drugs to be screened: 80 μl 1× tyrosine kinase buffer containing ATP+10 μl drug to be tested +7 μl tissue extract+3 μl 1× tyrosine kinase buffer.
PTK activity assay: 1× tyrosine kinase buffer was prepared by evenly mixing 1 mL (10×) tyrosine kinase buffer with 9 mL DDW. The tissue extract was diluted with 1× tyrosine kinase buffer appropriately, mixed with it gently and evenly, and placed on ice. ATP stock solution was dissolved by evenly mixing 48 μl ATP stock solution with 1 mL 1× tyrosine kinase buffer, and placed on ice. The microplate reader was added in respective wells with the groups formulated as above, covered with the lid, and incubated at room temperature for 30 min. The microplate reader was washed with 200 μl elution buffer and tapped until the residual buffer was removed, and this procedure was repeated for five times. To each well, 100 μl antibody diluent (antibody elution buffer diluted at a ratio of 1:2000) was added. The reader was covered with the lid, and incubated at room temperature for 30 min. OPD solution was prepared by addition of 4 mg OPD into a mixture of 4.86 mL 0.1 mol/L citric acid solution and 5.14 mL 0.2 mol/L Na2HPO4 solution, followed by addition of 50 μl 30% H2O2 to allow for complete dissolution, and then was protected from light. The antibody solution was removed. The reader was washed with 200 μl elution buffer and tapped until the residual buffer was removed, and this procedure was repeated for five times.

In the case of `Cc1ccccc1NS(=O)(=O)c1ccc2c(c1)/C(=C/c1nc3ccccc3[nH]1)C(=O)N2` [Indo 5, 3-(1H-benzimidazol-2-methylene)-5-(2-methylphenylaminosulfo)-2-indolone], the “Inhibition rate on tyrosine kinase” value was 53.4%.
